Assay [1] has as its system Vero. Nature of the assay: Selectivity index, ratio of IC50 for african green monkey Vero cells to IC50 for human MCF7 cells after 48 hrs.
The subject of assay [2] is HeLa. Nature of the assay: Induction of apoptosis in human HeLa cells assessed as phosphatidylserine externalization at 1 uM using annexin/PI staining by fluorescence microscopy. Format: functional, cell-based. Particulars: TDE = time-dependent effect.
The subject of assay [3] is HeLa. Nature of the assay: Induction of apoptosis in human HeLa cells assessed as necrotic cells after 0.5 to 4 hrs using annexin/PI staining by fluorescence microscopy. Format: functional, cell-based.
For assay [4], the system named is HeLa. Briefly: Induction of apoptosis in human HeLa cells assessed as phosphatidylserine externalization after 0.5 to 4 hrs using annexin/PI staining by fluorescence microscopy. It is filed as functional, cell-based.
Assay [5] relates to A549. Briefly: Cytotoxicity against human A549 cells assessed as cell viability after 48 hrs by MTT assay. It is filed as functional, cell-based. The settings on record: A549, 48 h. (Formazan colour is commonly taken as a measure of viable cells.)
The test system of assay [6] is HeLa. Briefly: Induction of apoptosis in human HeLa cells assessed as DNA fragmentation by agarose gel electrophoresis. Format: functional, cell-based.
Assay [7] relates to HeLa. Briefly: Cytotoxicity against human HeLa cells assessed as cell viability after 48 hrs by MTT assay. Format: functional, cell-based.
Assay [8] deals with HeLa. Nature of the assay: Induction of apoptosis in human HeLa cells assessed as necrotic cells at 1 uM using annexin/PI staining by fluorescence microscopy. It is filed as functional, cell-based. The settings on record: TDE = time-dependent effect.
The subject of assay [9] is MCF7. Nature of the assay: Cytotoxicity against human MCF7 cells assessed as cell viability after 48 hrs by MTT assay. It is filed as functional, cell-based. Particulars: MCF7, 48 h.
Assay [10] relates to HeLa. Nature of the assay: Induction of apoptosis in human HeLa cells assessed as late apoptotic cells at 2 to 4 uM up to 4 hrs using annexin/PI staining by fluorescence microscopy. Format: functional, cell-based.
The target of assay [11] is T1, Caspase-3 (Homo sapiens) (UniProt P42574).
T1 sequence (whole entry): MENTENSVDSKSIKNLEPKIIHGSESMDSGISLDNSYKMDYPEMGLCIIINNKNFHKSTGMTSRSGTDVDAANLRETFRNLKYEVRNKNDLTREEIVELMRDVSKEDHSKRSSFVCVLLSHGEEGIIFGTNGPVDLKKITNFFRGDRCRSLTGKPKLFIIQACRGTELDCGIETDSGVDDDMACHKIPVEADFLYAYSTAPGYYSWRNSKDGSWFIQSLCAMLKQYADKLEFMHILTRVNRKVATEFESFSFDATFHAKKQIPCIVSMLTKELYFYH
Nature of the assay: Induction of caspase 3 activation in human HeLa cells using Ac-DEVD-pNA after 4 hrs by Bradford assay. It is filed as cell-based.

Assay [12] relates to HeLa. Nature of the assay: Induction of apoptosis in human HeLa cells assessed as early apoptotic cells at 2 to 4 uM up to 4 hrs using annexin/PI staining by fluorescence microscopy. Format: functional, cell-based.
For assay [13], the system named is HeLa. Briefly: Induction of apoptosis in human HeLa cells assessed as phosphatidylserine externalization at 2 to 16 uM using annexin/PI staining by fluorescence microscopy. It is filed as functional, cell-based. The settings on record: TDE = time-dependent effect.
The test system of assay [14] is MCF7. Nature of the assay: Cytotoxicity against human MCF7 cells assessed as cell viability after 72 hrs by MTT assay. It is filed as functional, cell-based. Particulars: MCF7, 72 h.
Assay [15] concerns HeLa. Nature of the assay: Induction of apoptosis in human HeLa cells assessed as chromatin condensation at 8 uM after 12 hrs using Hoechst 33342 staining by fluorescence microscopic analysis. Format: functional, cell-based.
Assay [16] has as its system HeLa. Briefly: Induction of apoptosis in human HeLa cells assessed as DNA fragmentation at 16 uM after 48 hrs by agarose gel electrophoresis. It is filed as functional, cell-based.
Assay [17] deals with HeLa. Nature of the assay: Induction of apoptosis in human HeLa cells assessed as DNA fragmentation at 16 to 32 uM after 24 hrs by agarose gel electrophoresis. It is filed as functional, cell-based.
In assay [18] the test system is Vero. Nature of the assay: Cytotoxicity against african green monkey Vero cells assessed as cell viability after 72 hrs by MTT assay. The settings on record: Chlorocebus sabaeus. Format: cell-based.
Assay [19] deals with T1, Caspase-3 (Homo sapiens). Nature of the assay: Induction of caspase 3 activation in human HeLa cells using Ac-DEVD-pNA at 4 uM after 4 hrs by Bradford assay. It is filed as cell-based.
The test system of assay [20] is A549. Briefly: Cytotoxicity against human A549 cells assessed as cell viability after 72 hrs by MTT assay. It is filed as functional, cell-based. The settings on record: A549, 72 h.
The target in assay [21] is T1, Caspase-3 (Homo sapiens). Nature of the assay: Induction of caspase 3 activation in human HeLa cells using Ac-DEVD-pNA at 8 uM after 4 hrs by Bradford assay. It is filed as cell-based.
Assay [22] deals with HeLa. Nature of the assay: Cytotoxicity against human HeLa cells assessed as cell viability after 72 hrs by MTT assay. It is filed as functional, cell-based.
The test system of assay [23] is Vero. Nature of the assay: Cytotoxicity against african green monkey Vero cells assessed as cell viability after 48 hrs by MTT assay. Format: cell-based. Particulars: Chlorocebus sabaeus.
The subject of assay [24] is HeLa. Nature of the assay: Induction of apoptosis in human HeLa cells assessed as formation of apoptotic bodies at 8 uM after 12 hrs using Hoechst 33342 staining by fluorescence microscopic analysis. Format: functional, cell-based.
In assay [25] the test system is HeLa. Nature of the assay: Induction of apoptosis in human HeLa cells assessed as necrotic cells at 2 to 16 uM using annexin/PI staining by fluorescence microscopy. The settings on record: TDE = time-dependent effect. Format: functional, cell-based.
The subject of assay [26] is HeLa. Nature of the assay: Induction of apoptosis in human HeLa cells assessed as DNA fragmentation at 4 to 32 uM after 12 hrs by agarose gel electrophoresis. Format: functional, cell-based.
Assay [27] deals with HeLa. Nature of the assay: Increase in apoptosis in human HeLa cells at 8 uM after 12 hrs using Hoechst 33342 staining by fluorescence microscopic analysis relative to control. Format: functional.

Calls of active or inactive are those of the source. The rule behind the calls is not given here. *1 amine or outer side, *2 acyl side, *3 side chain or, on linkers, in order; H or OH if unused. Where a SMILES comes first, the peptide text is derived from it. Bridges are numbered along the chain shown (N, C = ends). Roman numbers before positions name the chains, in order. [ ]: non-standard residue; d: D form. Actinocin(1to9) = Cc1c2oc3c(C)ccc(C(=O)[*:2])c3nc-2c(C(=O)[*:1])c(N)c1=O; NMeV = CN[C@H](C(=O)O)C(C)C; Sar = CNCC(=O)O

As for `Cc1c2oc3c(C)ccc(C(=O)N[C@@H]4C(=O)N[C@H](C(C)C)C(=O)N5CCC[C@H]5C(=O)N(C)CC(=O)N(C)[C@@H](C(C)C)C(=O)O[C@@H]4C)c3nc-2c(C(=O)N[C@@H]2C(=O)N[C@H](C(C)C)C(=O)N3CCC[C@H]3C(=O)N(C)CC(=O)N(C)[C@@H](C(C)C)C(=O)O[C@@H]2C)c(N)c1=O` [DACTINOMYCIN] (I: T[dV]P[Sar][NMeV] / II: T[dV]P[Sar][NMeV]; ester I:1-I:C, II:1-II:C; linker I:N-II:N via Actinocin(1to9)), the “Ratio IC50” value in the assay with Vero [1] was 3. In addition, the Activity entry was “tde” with HeLa [2], “Dose-dependent effect” in the assay on HeLa [3], “Dose-dependent effect” in the assay on HeLa [4] and “tde” in the assay on HeLa [8]. In addition, the concentration for half-maximal inhibition (IC50) (commonly the concentration that gives 50% inhibition) worked out at 7.2 nM with A549 [5], 1.1 nM with HeLa [7] and 24 nM with MCF7 [9]. For the same compound, in the assay with HeLa [6], the outcome was Active.

On to `CC1=C(C)C(=O)O[C@@H]([C@@H](C)[C@H]2CC=C3[C@@H]4C[C@H]5O[C@]56[C@@H](O)C=CC(=O)[C@]6(C)[C@H]4CC[C@@]32C)C1`, for which the result in the assay on HeLa [10], in the assay on HeLa [12], in the assay with HeLa [15] and with HeLa [24] was Active. Moreover, the Activity result was “Dose-dependent effect” at Caspase-3 (Homo sapiens) [11]; “tde” with HeLa [13]; “Dose-dependent effect” in the assay with HeLa [3]; “Dose-dependent effect” in the assay with HeLa [4]; “tde” with HeLa [25]; 27% with HeLa [27]. Besides, in the assay on Vero [1], the “Ratio IC50” value is listed as 1.7. Further, the half-inhibitory concentration (IC50) in the assay on MCF7 [14] turned out to be 300 nM; in the assay with Vero [18] it was 1200 nM; with A549 [20], 2100 nM; with A549 [5], 2600 nM; with HeLa [22] it was 2900 nM; in the assay with Vero [23], 6200 nM. The IC50 turned out to be 3500 nM in the assay on HeLa [7] and 1300 nM with MCF7 [9]. In addition, the result with HeLa [16], in the assay with HeLa [17], on Caspase-3 (Homo sapiens) [19], at Caspase-3 (Homo sapiens) [21] and in the assay with HeLa [26] was inactive.

Source of the values: ChEMBL document CHEMBL2046268 (Eur J Med Chem, 2012).
